Test results: US8609892B2 (Eli Lilly and Company, priority 2004, dated 2013)

Molecular target: cloned human glucagon receptor (Homo sapiens (Human), UniProt P47871)
Experiment: Glucagon Receptor (hGlucR) Binding Assay
Settings: I-125 glucagon competition, SPA, 293HEK membranes, Cheng-Prusoff
Protocol: This plasmid DNA was transfected into 293 HEK cells and selected with 200 ug/mL Hygromycin.
Crude plasma membranes are prepared using cells from suspension culture. The cells are lysed on ice in hypotonic buffer containing 25 mM Tris HCL, pH 7.5, 1 mM MgCl2, DNAse1, 20 u/mL, and Roche Complete Inhibitors-without EDTA. The cell suspension is homogenized with a glass dounce homogenizer using a Teflon pestle for 25 strokes. The homogenate is centrifuged at 4 degrees C. at 1800×g for 15 mins. The supernate is collected and the pellet is resuspended in hypotonic buffer and rehomogenized. The mixture is centrifuged at 1800×g for 15 mins. The second supernate is combined with the first supernate. The combined supernates are recentrifuged at 1800×g for 15 mins to clarify. The clarified supernate is transferred to high speed tubes and centrifuged at 25000×g for 30 minutes at 4 degrees C. The membrane pellet is resuspended in homogenization buffer and stored as frozen aliquots at −80 degree C. freezer until needed.
The specific activity is 2200 Ci/mmol.
The binding buffer contains 25 mM Hepes, pH 7.4, 2.5 mM CaCl2, 1 mM MgCl2, 0.1% fatty acid free BSA, (ICN), 0.003% tween-20, and Roche Complete Inhibitors without EDTA. […] Test compounds are dissolved in DMSO and serially diluted in DMSO. […] Plates are read with a MicroBeta after 14 hours of settling time at room temp. […]

Sequence of cloned human glucagon receptor (P47871 26-477): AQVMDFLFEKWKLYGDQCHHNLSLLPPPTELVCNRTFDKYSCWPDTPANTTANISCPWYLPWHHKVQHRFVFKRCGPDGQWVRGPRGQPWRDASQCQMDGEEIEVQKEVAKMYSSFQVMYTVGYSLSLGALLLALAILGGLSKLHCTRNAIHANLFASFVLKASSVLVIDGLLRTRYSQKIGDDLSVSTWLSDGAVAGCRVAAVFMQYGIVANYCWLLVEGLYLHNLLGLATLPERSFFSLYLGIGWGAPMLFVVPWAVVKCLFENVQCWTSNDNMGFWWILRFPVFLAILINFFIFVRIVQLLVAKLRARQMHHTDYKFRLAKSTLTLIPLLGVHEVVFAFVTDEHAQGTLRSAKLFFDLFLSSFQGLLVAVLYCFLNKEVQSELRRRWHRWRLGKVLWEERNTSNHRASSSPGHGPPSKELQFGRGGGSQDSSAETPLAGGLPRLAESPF

Structure (SMILES) | Ki [nM]
Cc1ccc(-c2ccc(SC(CC(C)C)c3ccc(C(=O)NCCC(=O)O)cc3)cc2)cc1C (centres unmarked) | 265
CCCC(Oc1ccc(-c2ccc(CC(C)C)cc2)nc1)c1ccc(C(=O)NCCC(=O)O)cc1 (centres unmarked) | 254
